Measured values as given in PubChem BioAssay (NCI).
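The compound was tested at five concentrations on cells cultured in 96-well plates, with a 48-hour exposure period. At the TGI there is no net growth.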

What was measured:
Test in all cases: NCI anticancer screen, dose series, 48 h
RXF 393 renal = system: RXF 393 renal
OVCAR-5 ovarian = system: OVCAR-5 ovarian
ACHN renal = system: ACHN renal
KM20L2 colon = system: KM20L2 colon
IGROV1 ovarian = system: IGROV1 ovarian
HL-60(TB) leukemia = system: HL-60(TB) leukemia
786-0 renal = system: 786-0 renal
RPMI-8226 leukemia = system: RPMI-8226 leukemia
HT29 colon = system: HT29 colon
LXFL 529 NSCLC = system: LXFL 529 NSCLC
HCT-15 colon = system: HCT-15 colon
NCI-H460 lung = system: NCI-H460 lung
CCRF-CEM leukemia = system: CCRF-CEM leukemia
HCT-116 colon = system: HCT-116 colon
M19-MEL melanoma = system: M19-MEL melanoma
SF-295 CNS = system: SF-295 CNS
SNB-75 CNS = system: SNB-75 CNS
OVCAR-8 ovarian = system: OVCAR-8 ovarian
DMS 273 small cell lung = system: DMS 273 small cell lung
OVCAR-3 ovarian = system: OVCAR-3 ovarian
UACC-62 melanoma = system: UACC-62 melanoma
HOP-18 NSCLC = system: HOP-18 NSCLC
KM12 colon = system: KM12 colon
NCI-H226 lung = system: NCI-H226 lung
SK-MEL-28 melanoma = system: SK-MEL-28 melanoma
MALME-3M melanoma = system: MALME-3M melanoma
LOX IMVI melanoma = system: LOX IMVI melanoma
EKVX NSCLC = system: EKVX NSCLC
SK-MEL-5 melanoma = system: SK-MEL-5 melanoma
CAKI-1 renal = system: CAKI-1 renal
DLD-1 colon = system: DLD-1 colon
TK-10 renal = system: TK-10 renal
SNB-78 CNS = system: SNB-78 CNS
SN12C renal = system: SN12C renal
SNB-19 CNS = system: SNB-19 CNS
OVCAR-4 ovarian = system: OVCAR-4 ovarian
HOP-92 NSCLC = system: HOP-92 NSCLC
XF 498 CNS = system: XF 498 CNS
HOP-62 NSCLC = system: HOP-62 NSCLC
M14 melanoma = system: M14 melanoma
DMS 114 small cell lung = system: DMS 114 small cell lung
MOLT-4 leukemia = system: MOLT-4 leukemia
U251 CNS = system: U251 CNS
COLO 205 colon = system: COLO 205 colon
UO-31 renal = system: UO-31 renal
K-562 leukemia = system: K-562 leukemia
HCC-2998 colon = system: HCC-2998 colon
SK-MEL-2 melanoma = system: SK-MEL-2 melanoma
A549 NSCLC = system: A549 NSCLC
UACC-257 melanoma = system: UACC-257 melanoma
SW-620 colon = system: SW-620 colon
SK-OV-3 ovarian = system: SK-OV-3 ovarian
RXF-631 renal = system: RXF-631 renal
SF-268 CNS = system: SF-268 CNS
NCI-H522 lung = system: NCI-H522 lung
A498 renal = system: A498 renal
NCI-H23 lung = system: NCI-H23 lung
SF-539 CNS = system: SF-539 CNS
SR leukemia = system: SR leukemia

Measured: TGI

COC/C=C\COC
not listed: SF-268 CNS | NCI-H522 lung | A498 renal | NCI-H23 lung | SF-539 CNS | SR leukemia
> 100 µM: all other assays above

CCCNC(=O)C1C(=O)C(=O)N(CCC)C1=O (stereo unspecified)
not listed: HL-60(TB) leukemia | SF-295 CNS | NCI-H226 lung | RXF-631 renal | SR leukemia
> 100 µM: all other assays above

CC(Oc1ccc2c(-c3ccccc3)cc(=O)oc2c1)C(=O)O (stereo unspecified)
not listed: OVCAR-5 ovarian | RPMI-8226 leukemia | HCT-15 colon | DMS 273 small cell lung | SK-MEL-2 melanoma | RXF-631 renal
> 100 µM: all other assays above

NC(=S)/N=C(/c1nc2ccc(Cl)cc2[nH]c1=O)C(O)c1ccccc1Cl (stereo unspecified)
not listed: HCT-116 colon | M19-MEL melanoma | OVCAR-3 ovarian | SK-MEL-5 melanoma | CAKI-1 renal | SNB-78 CNS | SN12C renal | SNB-19 CNS | RXF-631 renal | SR leukemia
> 100 µM: all other assays above

O=C(Cc1nc2ccccc2c(=O)n1-c1ccccc1Cl)c1ccncc1
71.7 µM: SNB-75 CNS
not listed: RPMI-8226 leukemia | XF 498 CNS | SR leukemia
> 100 µM: all other assays above

C=C1C(=O)OC2C/C(C)=C/CC/C(C)=C/CCC3(COC(C)=O)OC3CC12 (stereo unspecified)
34.7 µM: HOP-62 NSCLC
27 µM: A498 renal
25.5 µM: UO-31 renal
13 µM: RPMI-8226 leukemia
8.49 µM: CCRF-CEM leukemia
5.85 µM: HL-60(TB) leukemia
30.5 µM: OVCAR-5 ovarian
18 µM: RXF 393 renal
19.5 µM: TK-10 renal | XF 498 CNS
31.9 µM: IGROV1 ovarian
27.5 µM: ACHN renal
2.9 µM: NCI-H522 lung
19.8 µM: OVCAR-8 ovarian
20.9 µM: DMS 273 small cell lung
3.87 µM: HCT-116 colon
7.85 µM: SF-539 CNS
18.5 µM: M14 melanoma
24.1 µM: HT29 colon
26.7 µM: SK-OV-3 ovarian
19.2 µM: OVCAR-3 ovarian
25.7 µM: MALME-3M melanoma
19.9 µM: KM20L2 colon
23 µM: LOX IMVI melanoma
32.2 µM: A549 NSCLC
29.3 µM: SF-295 CNS
21.5 µM: HCC-2998 colon
25.2 µM: NCI-H460 lung
5.09 µM: SW-620 colon
26.3 µM: MOLT-4 leukemia
34.1 µM: SN12C renal
8.1 µM: LXFL 529 NSCLC
10.7 µM: HCT-15 colon
15.6 µM: COLO 205 colon
28.3 µM: SK-MEL-5 melanoma
9.48 µM: CAKI-1 renal
23.3 µM: HOP-18 NSCLC | U251 CNS
26 µM: NCI-H23 lung
23.1 µM: SK-MEL-28 melanoma
14.6 µM: DMS 114 small cell lung
29.6 µM: UACC-257 melanoma
27.4 µM: UACC-62 melanoma
46.5 µM: OVCAR-4 ovarian
27.9 µM: KM12 colon
32.7 µM: K-562 leukemia
26.4 µM: M19-MEL melanoma
17.4 µM: 786-0 renal
30.3 µM: SNB-78 CNS
38.6 µM: EKVX NSCLC
31.4 µM: SNB-19 CNS
14.4 µM: DLD-1 colon | SK-MEL-2 melanoma
27.6 µM: SNB-75 CNS
21.7 µM: SF-268 CNS

Cc1ccccc1NC(=O)c1cc(-c2ccc([N+](=O)[O-])cc2)nc(=S)[nH]1
not listed: RPMI-8226 leukemia | CCRF-CEM leukemia | M19-MEL melanoma | SNB-75 CNS | XF 498 CNS | NCI-H522 lung | A498 renal | SR leukemia
> 100 µM: all other assays above
